Data on 28 compounds can be found in US4190657A, “Naphthyridine derivatives” (Synthelabo, priority 1976, dated 1980).

In one data set the test system is mice of the CD 1 strain. The data set is described as follows: anoxia due to pressure reduction, survival time, mean active dose (MAD). The note with it: Mus musculus, ip, mice CD 1, intraperitoneal, 10 minutes before the experiment, 190 mm of mercury; Table II; read-out: ANOXIA DUE TO PRESSURE REDUCTION, mean active dose (MAD), dose which increases the survival time by 100%. Type of data set: in vivo, mice (CD 1 strain). The protocol: Mice of the CD 1 strain are kept in an atmosphere depleted in oxygen, by setting up a partial vacuum (190 mm. of mercury, corresponding to 5.25% of oxygen).
The survival time of the animals is noted. This time is increased by the agents capable of favouring oxygenation in the tissues and, in particular, in the brain. The compounds studied are administered intraperitoneally in several doses 10 minutes before the experiment. The percentage increases of the survival time relative to the values obtained with control animals are calculated. The mean active dose (MAD), namely the dose which increases the survival time by 100%, is determined graphically.
The results are indicated in Table II below for a representative number of compounds.

A short description of data set [1]: acute toxicity, 50 percent lethal dose (LD50), graphical method. The note with it: mouse, in vivo, ip, mice CD 1, intraperitoneal; Table II; read-out: ACUTE TOXICITY LD50 for intraperitoneal administration. Type of data set: in vivo. The protocol:
The 50 percent lethal dose (LD50) of the compounds is determined for mice of strain CD 1 by a graphical method.
The results are indicated in Table II below, for a representative number of compounds.

Assay in data set [2]: as above
The note with it: mouse, in vivo, Table III.

The subject of data set [3] is curarised rats ("sleep" induced by sodium 4-hydroxy-butyrate). Kind of data set: action on the duration of the "sleep" induced by sodium 4-hydroxy-butyrate (GHB) in curarised rats. Type of data set: in vivo, rats (male, Charles River strain). The note with it: for TOTAL DURATION of the "sleep" / change in vivo at 10 mg/kg / change in vivo at 30 mg/kg: GHB 200 mg/kg i.v.; for TOTAL DURATION of the "sleep": over 75 minutes, comparison 54.12 ± 2.07; for change in vivo at 10 mg/kg / change in vivo at 30 mg/kg: read-out: DIFFERENCE IN % RELATIVE TO THE CONTROLS (total duration of the "sleep"). On the procedure:
This action was determined from the influence of the compounds on the duration of the "sleep" induced by sodium 4-hydroxy-butyrate (GHB) in curarised rats.
The animals used are male rats of the Charles River strain, weighing 200±20 g. The animals, curarised by alloferin given intraperitoneally at the rate of 1 mg/kg, are placed under artificial respiration by means of a mask applied over the snout (respiration frequency: 40/minute; volume respired: 14 cc). The oesophagus is ligatured beforehand so as to avoid air entering the stomach.
Fronto-parietal and occipital cortical electrodes make it possible to record the electrocorticographic activity on a Grass model 79P polygraph at a speed of 6 mm/sec. The animals are prepared under local anaesthesia (2% xylocaine). The rats are kept at a constant temperature (37.5° C.) throughout the experiment. Ten minutes after the end of the preparation of the rat, a dose of 200 mg/kg of Na 4-hydroxybutyrate is injected intravenously into the tail. […]
The traces are evaluated for periods of 15 minutes over the course of 75 minutes after the injection of "GHB". During this period of analysis, the total duration of the "sleep" is determined. A series of 15 comparisons makes it possible precisely to define the duration of the "GHB sleep".
The statistical analysis of the results is carried out with the aid of the Mann-Whitney "U" test.

Where [4] appears, read: ip, intraperitoneal, read-out: TOXICITY intraperitoneal.
[5] abbreviates: Rattus norvegicus, ip, 1.25 h, read-out: […] % RELATIVE TO THE CONTROLS (total duration of the "sleep"), 10 mg/kg intraperitoneally.
Where [6] appears, read: Rattus norvegicus, ip, 1.25 h, read-out: […] % RELATIVE TO THE CONTROLS (total duration of the "sleep"), 30 mg/kg intraperitoneally.
Where [7] appears, read: iv, read-out: TOXICITY intravenous.
Where [8] appears, read: Rattus norvegicus, ip, 1.25 h, 30 mg/kg intraperitoneally.
[9] abbreviates: Rattus norvegicus, ip, 1.25 h, 10 mg/kg intraperitoneally.

Read-outs that look alike come from different tables or passages of the source.

As for `COC(=O)[C@@H]1CC(=O)n2c3c(c4ccccc42)CCN(C)[C@@H]31` (relative stereo) [1 (m.s.cis), Methyl 1,2,3,3a,4,5-hexahydro-3-methyl-6-oxo-6H-indolo[3,2,1-de][1,5]naphthyridine-4-carboxylate], the ED (100% increase in survival time) in the data set with mice of the CD 1 strain turned out to be 4 mg/kg. For the same compound, the LD50 in data set [1] was 170 mg/kg.
For `CCOC(=O)[C@@H]1CC(=O)n2c3c(c4ccccc42)CCN(C)[C@@H]31` (relative stereo) [30 (m.s.)] the same measures were 9 mg/kg and 110 mg/kg.
For the compound `COC(=O)[C@@H]1CC(=O)n2c3c(c4ccccc42)CCN(C)[C@H]31` (relative stereo) [Compound 1 trans m.s., Methyl 1,2,3,3a,4,5-hexahydro-3-methyl-6-oxo-6H-indolo[3,2,1-de][1,5]naphthyridine-4-carboxylate], the LD50 stood at 185 mg/kg in data set [2] (setting [4]) and 47 mg/kg in data set [2] (intravenous, read-out: TOXICITY intravenous). Moreover, the “TOTAL DURATION of the "sleep"” value in data set [3] (40 mg/kg intraperitoneally) amounted to 32.01 ± 2.59 minutes. seconds. The change in vivo at 40 mg/kg in data set [3] (Rattus norvegicus, ip, 1.25 h, read-out: […] % RELATIVE TO THE CONTROLS (total duration of the "sleep")) is -41%.
Consider `COC(=O)[C@@H]1CC(=O)n2c3c(c4ccccc42)CCN(CCC(C)=O)[C@@H]31` (relative stereo) [Compound 49 m.s.cis], for which the LD50 in data set [2] (setting [4]) was 600 mg/kg. Moreover, the “TOTAL DURATION of the "sleep"” value in data set [3] (10 mg/kg intraperitoneally) worked out at 35.22 ± 2.26 minutes. seconds; in data set [3] (30 mg/kg intraperitoneally) it was 38.51 ± 3.12 minutes. seconds. In addition, the change in vivo at 10 mg/kg in data set [3] (setting [5]) is -35%. For the same compound, the change in vivo at 30 mg/kg in data set [3] (setting [6]) is -28%.
For `COC(=O)[C@@H]1CC(=O)n2c3c(c4cc(Cl)ccc42)CCN[C@@H]31` (relative stereo) [Compound 58 cis-isomer], in data set [2] (setting [4]), the LD50 was found to be 190 mg/kg. For the same compound, the “TOTAL DURATION of the "sleep"” value in data set [3] (30 mg/kg intraperitoneally) amounted to 36.08 ± 2.47 minutes. seconds. Moreover, the change in vivo at 30 mg/kg in data set [3] (setting [6]) is -33%.
For `COC(=O)[C@@H]1CC(=O)n2c3c(c4cc(Cl)ccc42)CCN[C@H]31` (relative stereo) [Compound 58 trans-isomer] the same measures were 170 mg/kg, 31.12 ± 2.18 minutes. seconds and -42%.
For the compound `COC(=O)[C@@H]1CC(=O)n2c3c(c4cc(F)ccc42)CCN(C)[C@@H]31` (relative stereo) [Compound 60 cis-isomer], the LD50 in data set [2] (setting [4]) amounted to 725 mg/kg. For the same compound, the “TOTAL DURATION of the "sleep"” value in data set [3] (10 mg/kg intraperitoneally) is reported as 34.22 ± 2.47 minutes. seconds. In addition, the change in vivo at 10 mg/kg in data set [3] (setting [5]) is -37%.
Consider `CC(O)CCN1CCc2c3n(c4ccccc24)C(=O)CCC31` (single isomer, unassigned) [35 (base, isomer A)], for which the ED (100% increase in survival time) with mice of the CD 1 strain was 9 mg/kg. Besides, the LD50 in data set [1] worked out at 150 mg/kg.
Consider `CC(O)CN1CCc2c3n(c4ccccc24)C(=O)CCC31` (single isomer, unassigned) [Compound 63 isomer A], for which the LD50 in data set [2] (setting [4]) was 125 mg/kg; in data set [2] (setting [7]) it was 75 mg/kg. Moreover, the “TOTAL DURATION of the "sleep"” value in data set [3] (30 mg/kg intraperitoneally) is 34.52 ± 2.14 minutes. seconds. The change in vivo at 30 mg/kg in data set [3] (setting [8]) was -36%.
As to `CCN1CCc2c3n(c4ccccc24)C(C)CCC31` (stereo not shown) [28 (m.s.)], the ED (100% increase in survival time) in the data set with mice of the CD 1 strain was found to be 4.5 mg/kg. Besides, the LD50 in data set [1] amounted to 40 mg/kg.
For the compound `CN1CCc2c3n(c4ccccc24)C(=O)CCC31` (stereo not shown) [Compound 2 (base), 1,2,3,3a,4,5-Hexahydro-3-methyl-6H-indolo[3,2,1-de][1,5]naphthyridin-6-one], the ED (100% increase in survival time) in the data set on mice of the CD 1 strain came out at 6 mg/kg. The LD50 in data set [1] is 85 mg/kg.
For `CCN1CCc2c3n(c4ccccc24)C(=O)CCC31` (stereo not shown) [Compound 3] the same measures were 9 mg/kg and 58 mg/kg.
For `CC1=CCC2c3c(c4ccccc4n31)CCN2C` (stereo not shown) [Compound 9, 1,2,3,3a-Tetrahydro-3,6-dimethyl-4H-indolo[3,2,1-de][1,5]naphthyridine] the same measures were 6.5 mg/kg and 78 mg/kg.
For `CC1CCC2c3c(c4ccccc4n31)CCN2C` (stereo not shown) [Compound 10] the same measures were 6.5 mg/kg and 50 mg/kg.
On to `Cc1ccc2c(c1)c1c3n2C(=O)CCC3NCC1` (stereo not shown) [Compound 11], for which the LD50 in data set [2] (setting [4]) came out at 155 mg/kg; in data set [2] (setting [7]) it was 105 mg/kg. Also, in data set [3] (30 mg/kg intraperitoneally), the “TOTAL DURATION of the "sleep"” value is 34.08 ± 1.21 minutes. seconds. The change in vivo at 30 mg/kg in data set [3] (setting [8]) was -37%.
Regarding `COC(=O)CCN1CCc2c3n(c4ccccc24)C(=O)CCC31` (stereo not shown) [Compound 19], the figures for the LD50 in data set [2] (setting [4]) and in data set [2] (setting [7]) were 680 mg/kg and 103 mg/kg, respectively. In data set [3] (30 mg/kg intraperitoneally), the “TOTAL DURATION of the "sleep"” value is recorded as 38.59 ± 1.20 minutes. seconds. Besides, the change in vivo at 30 mg/kg in data set [3] (setting [8]) is -28%.
In the case of `CCN1CCc2c3n(c4ccccc24)C(C)(O)CCC31` (stereo not shown) [Compound 21], the ED (100% increase in survival time) in the data set on mice of the CD 1 strain stood at 7 mg/kg. Moreover, the LD50 in data set [1] stood at 75 mg/kg.
For `CCCN1CCc2c3n(c4ccccc24)C(C)(O)CCC31` (stereo not shown) [Compound 22] the same measures were 8 mg/kg and 105 mg/kg.
For `CCN1CCc2c3n(c4ccccc24)C(C)=CCC31` (stereo not shown) [Compound 26] the same measures were 10 mg/kg and 67 mg/kg.
For `CC(=O)CCN1CCc2c3n(c4ccccc24)C(=O)CCC31` (stereo not shown) [Compound 33] the same measures were 8 mg/kg and 170 mg/kg.
As for `COc1ccc2c(c1)c1c3n2C(=O)CCC3N(C)CC1` (stereo not shown) [Compound 38], the ED (100% increase in survival time) in the data set with mice of the CD 1 strain came out at 8 mg/kg. For the same compound, the LD50 in data set [1] came out at 65 mg/kg.
For `COC(=O)C1CC(=O)n2c3c(c4cc(Cl)ccc42)CCNC31` (stereo not shown) [Compound 51], the LD50 in data set [2] (setting [4]) stood at 760 mg/kg. Besides, in data set [3] (30 mg/kg intraperitoneally), the “TOTAL DURATION of the "sleep"” value is 37.51 ± 2.12 minutes. seconds. Moreover, the change in vivo at 30 mg/kg in data set [3] (setting [6]) is -30%.
Regarding `CN1CCc2c3n(c4ccc(Cl)cc24)C(=O)CCC31` (stereo not shown) [Compound 53], the ED (100% increase in survival time) in the data set on mice of the CD 1 strain stood at 8 mg/kg. In data set [1], the LD50 was 150 mg/kg.
As for `O=C1CCC2NCCc3c2n1c1ccc(F)cc31` (stereo not shown) [Compound 54], the LD50 in data set [2] (setting [4]) turned out to be 100 mg/kg. In addition, the “TOTAL DURATION of the "sleep"” value was determined as 40.01 ± 5.00 minutes. seconds in data set [3] (10 mg/kg intraperitoneally) and 28.28 ± 4.28 minutes. seconds in data set [3] (30 mg/kg intraperitoneally). In addition, the change in vivo at 10 mg/kg in data set [3] (setting [9]) was -26%. For the same compound, in data set [3] (setting [8]), the change in vivo at 30 mg/kg is -47%.
For `CC(=O)CCN1CCc2c3n(c4ccc(Cl)cc24)C(=O)CCC31` (stereo not shown) [Compound 56] the same measures were 575 mg/kg, 43.07 ± 3.26 minutes. seconds, 30.39 ± 3.01 minutes. seconds, -20% and -43%.
As to `CC(=O)CN1CCc2c3n(c4ccccc24)C(=O)CCC31` (stereo not shown) [Compound 62], the ED (100% increase in survival time) with mice of the CD 1 strain turned out to be 10 mg/kg. In addition, the LD50 in data set [1] was 190 mg/kg.
On to `O=C1CCC2NCCc3c2n1c1cccc(Cl)c31` (stereo not shown) [Compound 65], for which, in data set [2] (setting [4]), the LD50 turned out to be 54 mg/kg. The “TOTAL DURATION of the "sleep"” value in data set [3] (10 mg/kg intraperitoneally) amounted to 34.51 ± 1.42 minutes. seconds. Further, the change in vivo at 10 mg/kg in data set [3] (setting [9]) was -36%.
For `Cc1ccc2c3c4n(c2c1)C(=O)CCC4N(C)CC3` (stereo not shown) [Compound 69] the same measures were 88 mg/kg, 29.46 ± 1.27 minutes. seconds and -45%.
